Source: paper PMC3331929 (Antiviral Research, 2012)
Like-named read-outs stand apart in the source and are kept apart here.

Tests used:
Format in all cases: biochemical
WNV NS2B/NS3pro [1] = molecular target: T1, WNV NS2B/NS3pro (West Nile virus, UniProt Q9Q6P4); settings: read-out: IC50 (μM) a; tri-peptide substrate Boc-GKR-AMC, inhibitor 0–40 μM
WNV NS2B/NS3pro [2] = molecular target: T1, WNV NS2B/NS3pro; settings: read-out: IC50 (μM) b; tetra-peptide substrate Bz-Nle-KRR-AMC
WNV NS2B/NS3pro [3] = molecular target: T1, WNV NS2B/NS3pro; test: In vitro protease assay, percent inhibition at a fixed inhibitor concentration; settings: aprotinin as positive control, final concentration 2–10 μM

T1 sequence (Q9Q6P4 1506-1683): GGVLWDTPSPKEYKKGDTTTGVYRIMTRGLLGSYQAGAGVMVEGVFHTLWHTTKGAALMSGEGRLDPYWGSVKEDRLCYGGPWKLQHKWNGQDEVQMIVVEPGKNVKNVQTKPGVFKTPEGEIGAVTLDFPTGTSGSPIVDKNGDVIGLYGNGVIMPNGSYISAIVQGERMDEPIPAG
T1 sequence (Q9Q6P4 1428-1467): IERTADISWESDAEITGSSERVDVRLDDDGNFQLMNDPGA

Row | Compound | IC50 (WNV NS2B/NS3pro [1]) | IC50 (WNV NS2B/NS3pro [2]) | inhibition of WNV NS2B-NS3pro, positive control (WNV NS2B/NS3pro [3])
1 | Oc1c(C(Nc2nccs2)c2ccccc2)ccc2cccnc12 (stereo not drawn) [compound 23] | 9.85 ± 0.34 µM | 12.9 ± 0.54 µM | –
2 | aprotinin | – | – | 100%
